This is an account of results in patent publication US7994168B2, “Hexahydro-pyrazino[1,2-A]pyrimidine-4,7-dione derivatives substituted with amino acids” (Sanofi-Aventis Deutschland GmbH, priority 2004, dated 2011).

The target in the first test is T1, MC4 (Homo sapiens, UniProt P32245).
T1 construct: expressed in transfected cells; host or cells: HEK293
T1 sequence (P32245 whole entry): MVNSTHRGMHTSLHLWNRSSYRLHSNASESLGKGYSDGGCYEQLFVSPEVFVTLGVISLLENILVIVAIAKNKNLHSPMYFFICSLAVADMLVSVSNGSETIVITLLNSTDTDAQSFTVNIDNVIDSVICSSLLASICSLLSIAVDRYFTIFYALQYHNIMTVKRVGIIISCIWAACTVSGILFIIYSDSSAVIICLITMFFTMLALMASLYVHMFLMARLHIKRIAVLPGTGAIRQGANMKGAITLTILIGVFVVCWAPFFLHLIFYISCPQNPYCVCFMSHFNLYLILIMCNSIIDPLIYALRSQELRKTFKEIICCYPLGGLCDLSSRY
Description: In vitro functional assay with recombinant cells: agonist-induced changes in intracellular Ca2+ (FLIPR). Format: cell-based. Particulars: recombinant HEK293 cells expressing MC4 and G-protein α-16; Fluo-4 Ca2+ FLIPR; 100% = 100 nM reference agonist MTII. As for the experimental part: In Vitro Functional Assays with Recombinant Cells
Function-testing assays were carried out by determining the agonist-induced changes in the intracellular concentration of Ca^2+ in recombinant HEK293 cells which express both MC4 and G-protein α-16 by means of the FLIPR technique (“Fluorescence Imaging Plate Reader”, Molecular Devices Corp.).
For the investigations, cells were seeded into 96-well microtiter plates (50 000 cells/well) and allowed to grow overnight. The medium was removed and the cells were incubated in buffer which contained the fluorescent dye Fluo-4. After this loading with dye, the cells were washed, test substance was added, and changes in the intracellular Ca^2+ concentration were measured in the FLIPR apparatus. Results have been shown as percentage change relative to the control (0%: no test substance added; 100%: 100 nM reference agonist MTII added), and used to calculate dose/activity plots, with subsequent determination of EC50 values.
Consider `CC(C)C(N)C(=O)N1CCCC1C(=O)NC1CN(S(=O)(=O)c2cc(F)ccc2Cl)C2CN(C(C)C)C(=O)C(Cc3ccc(Cl)cc3)N2C1=O` (stereo not drawn) [Example 6, N-[6-(4-Chlorobenzyl)-1-(2-chloro-5-fluorobenzenesulfonyl)-8-isopropyl-4,7-dioxooctahydropyrazino[1,2-a]pyrimidin-3-yl]-1-(2-amino-3-methylbutyryl)pyrrolidine-2-carboxamide], for which the 50% effective concentration (EC50) turned out to be 3.2 nM.
For `CC(C)C(N)C(=O)N1CCCC1C(=O)NC1CN(S(=O)(=O)c2ccc(Cl)cc2Cl)C2CN(C(C)C)C(=O)C(Cc3ccc(F)cc3F)N2C1=O` (stereo not drawn) [Example 10, N-[1-(2,4-Dichlorobenzenesulfonyl)-6-(2,4-difluorobenzyl)-8-isopropyl-4,7-dioxooctahydropyrazino[1,2-a]pyrimidin-3-yl]-1-(2-amino-3-methylbutyryl)pyrrolidine-2-carboxamide], the EC50 was determined as 5.7 nM.
`CC(N)C(=O)N1CCCC1C(=O)NC1CN(S(=O)(=O)c2ccc(Cl)cc2Cl)C2CN(C(C)C)C(=O)C(Cc3ccc(Cl)cc3)N2C1=O` (stereo not drawn) [Example 3, N-[6-(4-Chlorobenzyl)-1-(2,4-dichlorobenzenesulfonyl)-8-isopropyl-4,7-dioxooctahydropyrazino[1,2-a]pyrimidin-3-yl]-1-(2-aminopropionyl)pyrrolidine-2-carboxamide]: the EC50 was determined as 0.2 nM.
Regarding `CCN1CC2N(C(=O)C(NC(=O)C3CCCN3C(=O)C(N)C(C)C)CN2S(=O)(=O)c2ccc(Cl)cc2Cl)C(Cc2ccc(Cl)cc2)C1=O` (stereo not drawn) [Example 12, N-[6-(4-Chlorobenzyl)-1-(2,4-dichlorobenzenesulfonyl)-8-ethyl-4,7-dioxooctahydropyrazino[1,2-a]pyrimidin-3-yl]-1-(2-amino-3-methylbutyryl)pyrrolidine-2-carboxamide], the EC50 was determined as 0.6 nM.
In the case of `CC(C)C(N)C(=O)N1CCCC1C(=O)NC1CN(S(=O)(=O)c2ccc(Cl)cc2Cl)C2CN(C(C)C)C(=O)C(Cc3cccnc3)N2C1=O` (stereo not drawn) [Example 16, N-[1-(2,4-Dichlorobenzenesulfonyl)-8-isopropyl-4,7-dioxo-6-pyridin-3-ylmethyloctahydropyrazino[1,2-a]pyrimidin-3-yl]-1-(2-amino-3-methylbutyryl)pyrrolidine-2-carboxamide], the EC50 was 717 nM.
Turning to `CC(C)C(N)C(=O)N1CCCC1C(=O)NC1CN(S(=O)(=O)c2ccc(Cl)cc2Cl)C2CN(C(C)C)C(=O)C(Cc3ccc(Cl)cc3)N2C1=O` (stereo not drawn) [Example 1, N-[6-(4-Chlorobenzyl)-1-(2,4-dichlorobenzenesulfonyl)-8-isopropyl-4,7-dioxooctahydropyrazino[1,2-a]pyrimidin-3-yl]-1-(2-amino-3-methylbutyryl)pyrrolidin-2-carboxamide], the EC50 is 0.4 nM.
As for `CC(C)C(N)C(=O)N1CCCC1C(=O)NC1CN(S(=O)(=O)c2ccc(Cl)cc2Cl)C2CN(C3CC3)C(=O)C(Cc3cccnc3)N2C1=O` (stereo not drawn) [Example 17, N-[8-Cyclopropyl-1-(2,4-dichlorobenzenesulfonyl)-4,7-dioxo-6-pyridin-3-ylmethyloctahydropyrazino[1,2-a]pyrimidin-3-yl]-1-(2-amino-3-methylbutyryl)pyrrolidine-2-carboxamide], the EC50 was determined as 3490 nM.
The same measure, in the same setting: as for `CC(C)C(N)C(=O)N1CCCC1C(=O)NC1CN(S(=O)(=O)c2ccc(Cl)cc2Cl)C2CN(C)C(=O)C(Cc3ccc(F)c(F)c3)N2C1=O` (stereo not drawn) [Example 15, N-[1-(2,4-Dichlorobenzenesulfonyl)-6-(3,4-difluorobenzyl)-8-methyl-4,7-dioxooctahydropyrazino[1,2-a]pyrimidin-3-yl]-1-(2-amino-3-methylbutyryl)pyrrolidine-2-carboxamide], the figure is 30.8 nM.
In the case of `CC(C)C(N)C(=O)N1CCCC1C(=O)NC1CN(S(=O)(=O)c2ccc(OC(F)(F)F)cc2Cl)C2CN(C(C)C)C(=O)C(Cc3ccc(Cl)cc3)N2C1=O` (stereo not drawn) [Example 7, N-[6-(4-Chlorobenzyl)-1-(2-chloro-4-trifluoromethoxybenzene-sulfonyl)-8-isopropyl-4,7-dioxooctahydropyrazino[1,2-a]-pyrimidin-3-yl]-1-(2-amino-3-methylbutyryl)pyrrolidine-2-carboxamide], the concentration giving a half-maximal response (EC50) is 2.6 nM.
On to `CCN1C[C@H]2N(C(=O)C(NC(=O)C3CCCN3C(=O)C(N)C(C)C)CN2S(=O)(=O)c2ccc(Cl)cc2Cl)[C@@H](Cc2ccc(F)c(F)c2)C1=O` (stereo partly drawn) [Example 14, N-[1-(2,4-dichlorobenzenesulfonyl)-6-(3,4-difluorobenzyl)-8-ethyl-4,7-dioxooctahydropyrazino[1,2-a]pyrimidin-3-yl]-1-(2-amino-3-methylbutryl)pyrrolidine-2-carboxamide], for which the EC50 stood at 1.6 nM.
As to `CC(C)N1CC2N(C(=O)C(NC(=O)C3CCCN3C(=O)CN)CN2S(=O)(=O)c2ccc(Cl)cc2Cl)C(Cc2ccc(Cl)cc2)C1=O` (stereo not drawn) [Example 2, N-[6-(4-Chlorobenzyl)-1-(2,4-dichlorobenzenesulfonyl)-8-isopropyl-4,7-dioxooctahydropyrazino[1,2-a]pyrimidin-3-yl]-1-(2-aminoacetyl)pyrrolidine-2-carboxamide], the half-maximal effective concentration (EC50) is 0.6 nM.
Still for that read-out and setting: the result for `CC(C)C(C(=O)N1CCCC1C(=O)NC1CN(S(=O)(=O)c2ccc(Cl)cc2Cl)C2CN(C(C)C)C(=O)C(Cc3ccc(Cl)cc3)N2C1=O)N(C)C` (stereo not drawn) [Example 5, N-[6-(4-Chlorobenzyl)-1-(2,4-dichlorobenzenesulfonyl)-8-isopropyl-4,7-dioxooctahydropyrazino[1,2-a]pyrimidin-3-yl]-1-(2-dimethylamino-3-methylbutyryl)pyrrolidine-2-carboxamide] reads 2 nM; that for `CC(C)CC(N)C(=O)N1CCCC1C(=O)NC1CN(S(=O)(=O)c2ccc(Cl)cc2Cl)C2CN(C(C)C)C(=O)C(Cc3ccc(Cl)cc3)N2C1=O` (stereo not drawn) [Example 4, N-[6-(4-Chlorobenzyl)-1-(2,4-dichlorobenzenesulfonyl)-8-isopropyl-4,7-dioxooctahydropyrazino[1,2-a]pyrimidin-3-yl]-1-(2-amino-4-methylpentanoyl)pyrrolidine-2-carboxamide], 0.4 nM; that for `CC(C)C(N)C(=O)N1CCCC1C(=O)NC1CN(S(=O)(=O)c2ccc(Cl)cc2Cl)C2CN(C)C(=O)C(Cc3ccc(Cl)cc3)N2C1=O` (stereo not drawn) [Example 13], 4.7 nM.
Take `CC(C)C(N)C(=O)N1CCCC1C(=O)NC1CN(S(=O)(=O)c2ccc(Cl)cc2F)C2CN(C(C)C)C(=O)C(Cc3ccc(Cl)cc3)N2C1=O` (stereo not drawn) [Example 8, N-[6-(4-Chlorobenzyl)-1-(4-chloro-2-fluorobenzenesulfonyl)-8-isopropyl-4,7-dioxooctahydropyrazino[1,2-a]pyrimidin-3-yl]-1-(2-amino-3-methylbutyryl)pyrrolidine-2-carboxamide]: the EC50 amounted to 2.4 nM.
With `CC(C)C(N)C(=O)N1CCCC1C(=O)NC1CN(S(=O)(=O)c2ccc(Cl)cc2Cl)C2CN(C(C)C)C(=O)C(Cc3ccc(F)c(F)c3)N2C1=O` (stereo not drawn) [Example 9, N-[1-(2,4-Dichlorobenzenesulfonyl)-6-(3,4-difluorobenzyl)-8-isopropyl-4,7-dioxooctahydropyrazino[1,2-a]pyrimidin-3-yl]-1-(2-amino-3-methylbutyryl)pyrrolidine-2-carboxamide], the EC50 is 1.5 nM.
Consider `CC(C)C(N)C(=O)N1CCCC1C(=O)NC1CN(S(=O)(=O)c2ccc(Cl)cc2Cl)C2CN(CC(F)F)C(=O)C(Cc3ccc(Cl)cc3)N2C1=O` (stereo not drawn) [Example 11, N-[6-(4-Chlorobenzyl)-1-(2,4-dichlorobenzenesulfonyl)-8-(2,2-difluoroethyl)-4,7-dioxooctahydropyrazino[1,2-a]pyrimidin-3-yl]-1-(2-amino-3-methylbutyryl)pyrrolidine-2-carboxamide], for which the EC50 turned out to be 0.6 nM.

Another test has as its system female NMRI mice. In words: Anorectic effect: cumulative condensed milk consumption of fasted mice. Format: in vivo. Particulars: oral dose 30 mg/kg by gavage after 24 hours food withdrawal, milk consumption determined for 7 hours, compared with vehicle-treated control animals. As for the experimental part:
The anorectic effect was tested on female NMRI mice. After withdrawal of food for 24 hours, the test product was administered by gavage. The animals were housed singly with free access to drinking water and were offered condensed milk 30 minutes after administration of the product. The condensed milk consumption was determined every half hour for 7 hours, and the general wellbeing of the animals was observed. The measured milk consumption was compared with the vehicle-treated control animals.
For the compound `CC(C)C(N)C(=O)N1CCCC1C(=O)NC1CN(S(=O)(=O)c2ccc(Cl)cc2Cl)C2CN(C(C)C)C(=O)C(Cc3ccc(Cl)cc3)N2C1=O` (stereo not drawn) [Example 1, N-[6-(4-Chlorobenzyl)-1-(2,4-dichlorobenzenesulfonyl)-8-isopropyl-4,7-dioxooctahydropyrazino[1,2-a]pyrimidin-3-yl]-1-(2-amino-3-methylbutyryl)pyrrolidin-2-carboxamide], the “Reduction in the cumulative milk consumption as % of the control” value stood at 8%.
